Results as given in patent US9975852B2, “Quinoline sulfonyl derivatives and uses thereof” (Health Sciences North Research Institute, priority 2013, dated 2018).
Like-named read-outs stand apart in the source and are kept apart here.

Experiments:
[1] = test system: MCF7 cells; experiment: Clonogenic assay using MCF7 cells; format: cell-based, human
Description: (§1) The clonogenic assay was carried out as described in Santi and Lee (2011).^11
Antiproliferative activity of VR-23 was evaluated on a variety of different cell lines, alone or in combination with Bortezomib, by way of SRBSRB or clonogenic assays.

[2] = test system: Jurkat lymphoma cells; experiment: Flow cytometry, apoptosis of Jurkat lymphoma cells; format: cell-based; conditions: 6 nM Bortezomib, 48 hours
Description: Asynchronously growing Jurkat lymphoma cells were incubated for 48 hours in the absence (sham control) or presence of Bortezomib alone or in combination with VR-23.

[3] = test system: MDA-MB231; experiment: SRB antiproliferative assay, MDA-MB231; format: cell-based, human
Description: (§2) Antiproliferative effects were determined by a sulforhodamine B (SRB) based protocol. For a typical screening experiment, 5,000-10,000 cells were inoculated into 100 μl medium per well of a 96-well microtiter plate as described previously. […] Some of the sample wells were fixed with 25 μl of 50% trichloroacetic acid (TCA) as a control of the cell population for each cell line at the time of drug addition (Tz). An aliquot of the frozen stock was thawed and diluted to the desired final maximum test-concentration with complete medium. Two to ten-fold serial dilutions were made to provide a total of seven drug concentrations (and a control [C]). Following addition of drugs, the culture plate was incubated for additional 48 h. Cells were fixed in situ by slowly adding 25 μl of ice-cold 50% (w/v) TCA (final concentration, 10% TCA), and were then incubated for 60 min at 4° C. The supernatant was discarded, and the plate was washed five times with tap water, followed by air-dry. 50 μl of SRB solution at 0.4% (w/v) in 1% acetic acid was added to each well, and the plate was incubated for >30 min at room temperature. Unbound SRB was removed by five washes with tap water, followed by air-drying. […] The relative growth rate (%) was calculated for each of the compound concentrations according to the following formula: (Ti−Tz)/(C−Tz)×100 In the formula, time zero (Tz), control growth (C), and OD for different concentration of tested compounds (Ti). The GI50 for each compound was obtained from a non-linear Sigmoidal dose-response (variable slope) curve which is fitted by GraphPad Prism™ v.4.03 software. Values were calculated for each of these parameters if the level of activity was reached. However, if the effect was not reached or was exceeded, the value for that parameter was expressed as greater or less than the maximum or minimum concentration tested. Flow Cytometry

[4] = test system: MDA-MB468; experiment: SRB antiproliferative assay, MDA-MB468; format: cell-based, human
Description: as §2

[5] = test system: MCF7; experiment: SRB antiproliferative assay, MCF7; format: cell-based, human
Description: as §2

[6] = test system: 184B5; experiment: SRB antiproliferative assay, 184B5 non-cancer breast cells; format: cell-based, human; conditions: SRB, 48 h, read-out: GI50 184B5
Description: as §2

[7] = test system: MCF10A; experiment: SRB antiproliferative assay, MCF10A non-cancer breast cells; format: cell-based, human; conditions: 48 h
Description: as §2

[8] = test system: MCF10A non-cancer cells; conditions: 50 μM CQ
[9] = Serum ALT liver toxicity, CD-1 mice; conditions: Chloroquine (Reference)
Description: (§3) Alanine Transaminase (“ALT”, SUP6001-c)/Aspartate Transaminase (“AST”, SUP6002-c) color endpoint assay kits were purchased from ID Labs Biotechnology (London, Ontario, Canada). Elevation of ALT and AST levels in serum samples is used as an indicator of liver damage/injury.
(§4) Animals were monitored for food and water consumption every day, and their body weights and tumor volumes were measured twice per week. Tumor volumes were measured with a digital caliper and were determined by using the following formula: ½ length×width^2. Blood samples were collected via cardiac puncture and processed further for ALT and AST measurements. The animals were then immediately euthanized by carbon dioxide.
(§5) Changes in body weight and the amount and ratio of alanine transaminase (ALT)/aspartate transaminase (AST) were used to measure toxic effects.
Ratio of <2 is considered normal.

[10] = test system: MDA-MB231 human metastatic breast cancer cells; experiment: Xenograft antitumor activity, ATH490 mice engrafted with MDA-MB231; format: in vivo; parameters: Tumor size D7 / Tumor size D15 / Tumor size D18 / Tumor size D22: unit not given here
Description: Five-week-old female CD-1 and ATH490 (strain code 490) athymic nude mice were purchased from Charles River (Quebec, Canada). The MDA-MB231 human metastatic breast cancer cells were obtained from the American Tissue Culture Collection (ATCC, Manassas, Va., USA). Cells were maintained under humidified condition at 37° C. and 5% CO2 in DMEM high glucose medium (ATCC) supplemented with 10% fetal bovine serum and antibiotics. All animal experiments, including animal handling, care, treatment and endpoint determination, were reviewed and approved by the Laurentian University Animal Care Committee (ACC) and carried out at Laurentian University Animal Care facility (Sudbury, Ontario, Canada)
To determine anti-tumor activity of VR-23 in an animal model, a xenograft model of human breast cancer cells in athymic nude mice was established. Exponentially growing MDA-MB231 cells were harvested and counted for inoculation into mice. Each mouse was subcutaneously injected at the flank with 10×10^6 cells in 0.2 ml ice cold 1×PBS. When tumor size reached 4-5 mm in diameter (n=4-5 per group), mice were randomly assigned into five (or more) groups.

[11] = Organ weight and histology (liver, spleen, kidney, lung) of ATH490 mice
Description: All values are presented as mean±S.E.M. Analyses were performed using GraphPad Prism software (GraphPad Software). Comparison between the groups was made by p value determination using one-way ANOVA. A p value of <0.05 was considered to be statistically significant. […] Each organ weight (%) is normalized with total body weight (BW).
The H&E stained slides were taken with a 20× objective using a Zeiss EPI-fluorescent microscope (bright field). […] At least 10 fields for each slide (one slide per mouse, and 3 mice per group) were examined.
Images were taken with a 10× objective using a Zeiss EPI-fluorescent microscope. […] Drug administration was carried out as described in Table IX and in the Materials and Methods section herein with respect to Animal Studies.
The images of the H&E stained renal tissues were taken with a Zeiss EPI-fluorescent (bright field) microscope using a 10× objective.

[12] = ATH490 mice
Description: as §3, §4, §5
Ratio of <2 is considered normal.

[13] = test system: U87MG brain cancer cells; experiment: Clonogenic assay, U87MG brain cancer cells; format: cell-based; conditions: Temozolomide
Description: as §1

[14] = Homo sapiens, MCF7, SRB, 48 h, read-out: GI50 MCF7

Compound | GI50 ([3]; Homo sapiens, MDA-MB-231, 48 h) | GI50 ([4]; Homo sapiens, MDA-MB-468, 48 h) | GI50 [5, 14] | melting point | GI50 ([6]; Homo sapiens, 184B5) | GI50 ([7]; Homo sapiens, MCF-10A) | further results
CC(C)C[C@H](NC(=O)[C@H](Cc1ccccc1)NC(=O)c1cnccn1)B(O)O [Bortezomib] | – | – | – | – | – | – | Average colony number ([1]; Bortezomib at 2 nM, series with non-treated control 34): 15; Average colony number ([1]; Bortezomib at 4 nM, series with non-treated control 34): 12; Average colony number ([1]; Bortezomib at 4 nM, series with non-treated control 36): 11; Average colony number ([1]; Bortezomib at 6 nM, series with non-treated control 36): 6; Cell killing by apoptosis [2]: neither 6 nM of Bortezomib (FIG. 4, ii) nor 0.75 μM of VR-23 (FIG. 4, iv) induced substantial cell killing by apoptosis
CCN(CC)CCCC(C)Nc1ccnc2cc(Cl)ccc12 (stereo not shown) [Chloroquine, reference compound] | 22.5 ± 1.44 µM | 28.6 ± 1.25 µM | – | – | 76.1 ± 1.13 µM | 81.3 ± 1.45 µM | GI50 ([5]; Homo sapiens, MCF7, 48 h, read-out: GI50 MCF7): 38.4 ± 1.2 µM; GI50 ([5]; Homo sapiens, MCF7, read-out: GI50 value of CQ on MCF7): ~38 µM; Apoptosis in MCF10A [8]: some cells underwent apoptosis; ALT [9]: 6.03 ± 4.40 IU/L blood
N.N.[Cl][Pt][Cl] [Cisplatin, reference compound] | – | – | – | – | – | – | GI50 ([3]; 48 h): 23.65 ± 0.23 µM; GI50 ([4]; 48 h): 31 ± 0.45 µM; GI50 ([5]; SRB, 48 h, read-out: GI50 MCF7): 25.8 ± 0.38 µM; GI50 [6]: 25.5 ± 0.35 µM; GI50 [7]: 51.5 ± 0.65 µM
CN(C)c1cccc2c(S(=O)(=O)NCCCNc3ccnc4cc(C(F)(F)F)ccc34)cccc12 [Compound 28, 5-Dimethylamino-naphthalene-1-sulfonic acid [3-(7-trifluoromethyl-quinolin-4-ylamino)-propyl]-amide] | 14.2 ± 0.98 µM | 9.71 ± 0.33 µM | 7.73 ± 0.61 µM | 199 to 201 °C | 3.73 ± 0.21 µM | – | –
O=S(=O)(NCCCNc1ccnc2cc(C(F)(F)F)ccc12)c1ccc(-c2ccccc2)cc1 [Compound 29, Biphenyl-4-sulfonic acid [3-(7-trifluoromethyl-quinolin-4-ylamino)-propyl]-amide] | 6.03 ± 0.38 µM | 4.19 ± 0.23 µM | 3.6 ± 0.27 µM | 110 to 112 °C | 2.82 ± 0.05 µM | – | –
O=S(=O)(NCCCNc1ccnc2cc(C(F)(F)F)ccc12)c1ccc(Cl)cc1Cl [Compound 30, 2,4-Dichloro-N-[3-(7-trifluoromethyl-quinolin-4-ylamino)-propyl]-benzenesulfonamide] | 6.97 ± 0.54 µM | 3.94 ± 0.12 µM | 5.18 ± 0.29 µM | 117 to 119 °C | 3.22 ± 0.08 µM | – | –
CC(=O)O[C@H]1C(=O)[C@@]2(C)[C@H]([C@H](OC(=O)c3ccccc3)[C@]3(O)C[C@H](OC(=O)[C@H](O)[C@@H](NC(=O)c4ccccc4)c4ccccc4)C(C)=C1C3(C)C)[C@]1(OC(C)=O)CO[C@@H]1C[C@@H]2O [Paclitaxel] | – | – | – | – | – | – | Survival (% of the control) ([1]; 1 nM of Paclitaxel alone): 35.8%; Survival (% of the control) ([1]; 1 nM of Paclitaxel alone, listed as paclitaxel): 35.8%; Survival (% of the control) ([1]; 2 nM of Paclitaxel alone): 9.5%; Tumor size D7 ([10]; day 7 post-treatment, dosing as in Table IX B): 47.63 ± 8.67; Tumor size D15 ([10]; day 15 post-treatment, dosing as in Table IX B): 23.25 ± 11.63; Tumor size D18 ([10]; day 18 post-treatment, dosing as in Table IX B): 25.20 ± 13.69; Tumor size D22 ([10]; day 22 post-treatment, dosing as in Table IX B): 16.59 ± 2.66; Reduction of tumor burden ([10]; paclitaxel 20 mg/kg/week): 18.4 fold; Microscopic Changes (liver) ([11]; ATH490 mice, VR-23, 30 mg/week, Paclitaxel, 20 mg/week): High rate of mitotic cells in liver; Spleen histology (H&E) ([11]; VR-23 30 mg/kg, paclitaxel 20 mg/kg): side effects including germinal center (GC) expansion; Kidney histology (H&E), nephrotoxicity ([11]; VR-23 30 mg/kg, paclitaxel 20 mg/kg, four weeks): high cellularity, endocapillary proliferative glomerulonephritis (enlarged glomeruli), and collapsed Bowman space; Cases with liver cells with densely stained nucleic acids ([11]; paclitaxel 20 mg/kg): approximately 15%; Weight of spleen ([11]; paclitaxel-treated, 29 days post-treatment): weight of spleen was higher; ALT [12]: 35.91 ± 4.26 U/L; AST [12]: 84.4 ± 29.21 U/L
Cn1nnc2c(C(N)=O)ncn2c1=O [Temozolomide] | – | – | – | – | – | – | # Colonies (Experiment #1) ([13]; 1 μM): 64; # Colonies (Experiment #2) ([13]; 1 μM): 94; # Colonies (Experiment #1) ([13]; 5 μM): 39; # Colonies (Experiment #2) ([13]; 5 μM): 50; # Colonies (Experiment #1) ([13]; 10 μM): 4; # Colonies (Experiment #2) ([13]; 10 μM): 5; # Colonies (Experiment #1) ([13]; 20 μM): 2; # Colonies (Experiment #2) ([13]; 20 μM): 1; # Colonies (Experiment #1) ([13]; 50 μM): 2; # Colonies (Experiment #2) ([13]; 50 μM): 1

Further lines, with some results ahead:

GI50 ([3]; Homo sapiens, MDA-MB-231, 48 h) | GI50 ([4]; Homo sapiens, MDA-MB-468, 48 h) | GI50 [5, 14] | melting point | Compound | GI50 ([6]; Homo sapiens, 184B5) | GI50 ([7]; Homo sapiens, MCF-10A) | further results
7.48 ± 0.63 µM | 4.55 ± 0.25 µM | 4.33 ± 0.23 µM | 137 to 139 °C | COC(=O)c1sccc1S(=O)(=O)NCCCNc1ccnc2cc(C(F)(F)F)ccc12 [Compound 31, N-(3-(7-Trifluoromethyl-quinolin-4-ylamino)propyl)thiophene-3-sulfonamide-2-carbomethoxy ester] | 12.1 ± 0.45 µM | – | –
6.16 ± 0.51 µM | 5.77 ± 0.41 µM | 5.25 ± 0.45 µM | – | Cc1ccc(S(=O)(=O)N2CCN(c3ccnc4cc(Cl)ccc34)CC2)cc1 [VR-22 (38), 7-Chloro-4-(4-tosylpiperazin-1-yl)quinoline] | 9.56 ± 0.53 µM | 12.6 ± 0.66 µM | –
11.8 ± 0.91 µM | 8.34 ± 0.73 µM | 4.31 ± 0.32 µM | – | O=S(=O)(c1ccc(Cl)cc1)N1CCN(c2ccnc3cc(Cl)ccc23)CC1 [VR-24 (39), 7-Chloro-4-(4-(4-chlorophenylsulfonyl)piperazin-1-yl)quinoline] | 6.36 ± 0.34 µM | 9.7 ± 0.81 µM | –
20.4 ± 1.15 µM | 9.21 ± 0.65 µM | 8.62 ± 0.38 µM | – | O=[N+]([O-])c1cccc(S(=O)(=O)N2CCN(c3ccnc4cc(Cl)ccc34)CC2)c1 [VR-25 (40), 7-Chloro-4-(4-(3-nitrophenylsulfonyl)piperazin-1-yl)quinoline] | 15.8 ± 0.88 µM | 31.1 ± 1.01 µM | –
12.7 ± 1.01 µM | 4.63 ± 0.35 µM | – | – | CN(C)c1cccc2c(S(=O)(=O)NCCCNc3ccnc4cc(Cl)ccc34)cccc12 [VR-65 (41), 5-Dimethylamino-naphthalene-1-sulfonic acid [3-(7-chloro-quinolin-4-ylamino)-propyl]-amide] | 1.67 ± 0.08 µM | 2.56 ± 0.03 µM | –
